Laboratory results reported in PubChem BioAssay AID248 (DTP/NCI, 2004).
Several values for one entry are separate records, joined by “and”; a condition that tells them apart may be missing. Equal entries are not always repeated. Toxic doses and inconclusive results are not listed. No stated cut-off is given here; in the data, active means T/C of 150% or more; inactive means T/C below 125%.

Test system: L1210 leukemia ip in BDF1 mice, survival T/C
Assay: NCI In Vivo Anticancer Drug Screen. Data for tumor model L1210 Leukemia (intraperitoneal) in B6D2F1 (BDF1) mice
Details: endpoint: mean survival time, higher = longer survival
Summary of the method: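 Mice bearing the transplanted tumor received compound or vehicle. Survival of the treated group was divided by that of the vehicle-treated control group to give the ratio.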

[1] = dose: 50.0 mg/kg/injection, schedule: Q01DX009 (ip), vehicle: saline
[2] = dose: 100.0 mg/kg/injection, schedule: Q01DX009 (ip), vehicle: saline
[3] = dose: 100.0 mg/kg/injection, schedule: Q04DX003 (ip), vehicle: saline
[4] = dose: 100.0 mg/kg/injection, schedule: Q01DX001 (ip), vehicle: saline with Tween-80
[5] = dose: 200.0 mg/kg/injection, schedule: Q01DX001 (ip), vehicle: saline with Tween-80
[6] = dose: 200.0 mg/kg/injection, schedule: Q01DX009 (ip), vehicle: saline with Tween-80
[7] = dose: 400.0 mg/kg/injection, schedule: Q01DX001 (ip), vehicle: saline with Tween-80
[8] = dose: 100.0 mg/kg/injection, schedule: Q01DX001 (ip), vehicle: saline
[9] = dose: 100.0 mg/kg/injection, schedule: Q04DX003 (ip), vehicle: saline with Tween-80
[10] = dose: 200.0 mg/kg/injection, schedule: Q04DX003 (ip), vehicle: saline with Tween-80
[11] = dose: 400.0 mg/kg/injection, schedule: Q04DX003 (ip), vehicle: saline with Tween-80
[12] = dose: 50.0 mg/kg/injection, schedule: Q01DX009 (ip), vehicle: saline with Tween-80
[13] = dose: 100.0 mg/kg/injection, schedule: Q01DX009 (ip), vehicle: saline with Tween-80
[14] = dose: 100.0 mg/kg/injection, schedule: Q01DX009 (ip), vehicle: Klucel (hydroxypropylcellulose) (HPC)
[15] = dose: 200.0 mg/kg/injection, schedule: Q01DX009 (ip), vehicle: Klucel (hydroxypropylcellulose) (HPC)
[16] = dose: 400.0 mg/kg/injection, schedule: Q01DX009 (ip), vehicle: Klucel (hydroxypropylcellulose) (HPC)

Measured: T/C

ClC1OCCOC1Cl (stereo not drawn)
inactive: [1] 102 % of control | [2] 91 % of control | [3] 92 % of control | dose: 200.0 mg/kg/injection, schedule: Q01DX009 (ip), vehicle: saline 100 % of control

CCCCSCCOC(=O)C1C2CCC(O2)C1C(=O)O (stereo not drawn)
inactive: dose: 12.5 mg/kg/injection, schedule: Q04DX003 (ip), vehicle: Klucel (hydroxypropylcellulose) (HPC) 95 % of control | dose: 25.0 mg/kg/injection, schedule: Q04DX003 (ip), vehicle: Klucel (hydroxypropylcellulose) (HPC) 96 % of control

CN(C)/N=N\c1nc[nH]c1C(=O)N1CCCC1
inactive: [4] 100 % of control | [5] 105 % of control | [7] 111 % of control
active: [6] 150 % of control and 206 % of control

Cc1cc(NC(=O)COc2ccc([N+](=O)[O-])cc2Cl)ccc1S(=O)(=O)F
inactive: [4] 102 % of control | [5] 98 % of control | [7] 93 % of control

CC(=O)Nc1cc2c(cc1[N+](=O)[O-])-c1ccccc1C2O (stereo not drawn)
inactive: dose: 25.0 mg/kg/injection, schedule: Q04DX003 (ip), vehicle: saline 94 % of control | dose: 50.0 mg/kg/injection, schedule: Q04DX003 (ip), vehicle: saline 100 % of control | [8] 87 % of control | [2] 102 % of control | [9] 102 % of control | [3] 96 % of control | dose: 150.0 mg/kg/injection, schedule: Q01DX009 (ip), vehicle: saline 92 % of control | [10] 101 % of control | dose: 225.0 mg/kg/injection, schedule: Q01DX009 (ip), vehicle: saline 105 % of control | [11] 104 % of control

O=S(=O)(Cc1ccc(Br)cc1)Cc1ccc(Br)cc1
inactive: dose: 50.0 mg/kg/injection, schedule: Q01DX001 (ip), vehicle: saline 102 % of control | [8] 90 % of control | dose: 200.0 mg/kg/injection, schedule: Q01DX001 (ip), vehicle: saline 88 % of control | dose: 400.0 mg/kg/injection, schedule: Q01DX001 (ip), vehicle: saline 90 % of control

C=COCCCCCCCCCCCCCCCCCC
inactive: dose: 100.0 mg/kg/injection, schedule: Q01DX001 (ip), vehicle: other 95 % of control | dose: 200.0 mg/kg/injection, schedule: Q01DX001 (ip), vehicle: other 95 % of control | dose: 400.0 mg/kg/injection, schedule: Q01DX001 (ip), vehicle: other 96 % of control

C/C=C/C[P+](CC)(c1ccccc1)c1ccccc1
inactive: dose: 3.13 mg/kg/injection, schedule: Q01DX009 (ip), vehicle: saline 89 % of control

CCOc1ccc(C(=N)N2CCN(C)CC2)c2ccccc12
inactive: dose: 4.2 mg/kg/injection, schedule: Q01DX Z (ip), vehicle: methylcellulose (MC) 104 % of control | dose: 6.3 mg/kg/injection, schedule: Q01DX Z (ip), vehicle: methylcellulose (MC) 103 % of control | dose: 9.5 mg/kg/injection, schedule: Q01DX Z (ip), vehicle: methylcellulose (MC) 97 % of control | dose: 14.3 mg/kg/injection, schedule: Q01DX Z (ip), vehicle: methylcellulose (MC) 106 % of control

CCCCN(CCCC)CC(O)c1cc(-c2cccc(I)c2)nc2c(Cl)cc(Cl)cc12 (stereo not drawn)
inactive: [9] 90 % of control | [10] 86 % of control | [11] 98 % of control

O=C(CCCCCCC(=O)C[n+]1ccccc1Br)C[n+]1ccccc1Br
inactive: dose: 1.4 mg/kg/injection, schedule: Q04DX003 (ip), vehicle: saline 105 % of control | dose: 2.8 mg/kg/injection, schedule: Q04DX003 (ip), vehicle: saline 100 % of control | dose: 5.6 mg/kg/injection, schedule: Q04DX003 (ip), vehicle: saline 97 % of control

Nc1ccc(Nc2ccccc2)c(N)c1
inactive: [1] 98 % of control | dose: 75.0 mg/kg/injection, schedule: Q01DX009 (ip), vehicle: saline 102 % of control | dose: 75.0 mg/kg/injection, schedule: Q04DX003 (ip), vehicle: saline 103 % of control | dose: 150.0 mg/kg/injection, schedule: Q04DX003 (ip), vehicle: saline 96 % of control

CC(C)=CCOc1ccc2c(c1)OCO2
inactive: dose: 100.0 mg/kg/injection, schedule: Q04DX002 (ip), vehicle: saline with Tween-80 91 % of control | dose: 200.0 mg/kg/injection, schedule: Q04DX002 (ip), vehicle: saline with Tween-80 103 % of control

Clc1ccc(CC23CCCCC2N3)cc1 (stereo not drawn)
inactive: dose: 100.0 mg/kg/injection, schedule: Q04DX003 (ip), vehicle: saline sonified 95 % of control | dose: 200.0 mg/kg/injection, schedule: Q04DX003 (ip), vehicle: saline sonified 108 % of control | dose: 400.0 mg/kg/injection, schedule: Q04DX003 (ip), vehicle: saline sonified 105 % of control

BrCCOC1CCCCO1 (stereo not drawn)
inactive: dose: 25.0 mg/kg/injection, schedule: Q01DX005 (ip), vehicle: saline 105 % of control | dose: 50.0 mg/kg/injection, schedule: Q01DX005 (ip), vehicle: saline 117 % of control | dose: 100.0 mg/kg/injection, schedule: Q01DX005 (ip), vehicle: saline 107 % of control | dose: 200.0 mg/kg/injection, schedule: Q01DX005 (ip), vehicle: saline 105 % of control

O=C(Cc1ccc(-c2ccccc2)cc1)c1ccccc1
inactive: [4] 94 % of control | [5] 93 % of control | [7] 91 % of control

NC(CSC(c1ccccc1)(c1ccccc1)c1ccc(-c2ccccc2)cc1)C(=O)O (stereo not drawn)
inactive: dose: 12.5 mg/kg/injection, schedule: Q01DX009 (ip), vehicle: saline 103 % of control | dose: 25.0 mg/kg/injection, schedule: Q01DX009 (ip), vehicle: saline 104 % of control | [1] 107 % of control

CC12CC3CC(C1)CC(NCCO)(C3)C2
inactive: dose: 10.0 mg/kg/injection, schedule: Q04DX002 (ip), vehicle: Klucel (hydroxypropylcellulose) (HPC) 87 % of control | dose: 20.0 mg/kg/injection, schedule: Q04DX002 (ip), vehicle: Klucel (hydroxypropylcellulose) (HPC) 91 % of control | dose: 40.0 mg/kg/injection, schedule: Q04DX002 (ip), vehicle: Klucel (hydroxypropylcellulose) (HPC) 91 % of control

Oc1ccc(Cl)c2c1CCC2
inactive: [12] 110 % of control | [13] 102 % of control | [9] 101 % of control | [6] 104 % of control | [10] 101 % of control

N#C/C(N)=C(\C#N)N=C1CCCCC1=O
inactive: dose: 100.0 mg/kg/injection, schedule: Q04DX002 (ip), vehicle: Klucel (hydroxypropylcellulose) (HPC) 94 % of control | dose: 200.0 mg/kg/injection, schedule: Q04DX002 (ip), vehicle: Klucel (hydroxypropylcellulose) (HPC) 91 % of control | dose: 400.0 mg/kg/injection, schedule: Q04DX002 (ip), vehicle: Klucel (hydroxypropylcellulose) (HPC) 94 % of control

COc1ccc(C2CCC(=O)CC2C(=O)O)cc1 (stereo not drawn)
inactive: [14] 92 % of control | dose: 100.0 mg/kg/injection, schedule: Q04DX003 (ip), vehicle: Klucel (hydroxypropylcellulose) (HPC) 110 % of control | [15] 97 % of control | dose: 200.0 mg/kg/injection, schedule: Q04DX003 (ip), vehicle: Klucel (hydroxypropylcellulose) (HPC) 98 % of control | [16] 103 % of control | dose: 400.0 mg/kg/injection, schedule: Q04DX003 (ip), vehicle: Klucel (hydroxypropylcellulose) (HPC) 93 % of control

CSC(=N)c1cccc(OCCCc2ccccc2)c1
inactive: dose: 25.0 mg/kg/injection, schedule: Q01DX009 (ip), vehicle: saline with Tween-80 92 % of control | [12] 92 % of control | [13] 101 % of control | [6] 93 % of control

COc1ccc(P(=S)(S)c2ccc(OC)cc2)cc1
inactive: dose: 100.0 mg/kg/injection, schedule: Q04DX003 (ip), vehicle: acetone 94 % of control | dose: 200.0 mg/kg/injection, schedule: Q04DX003 (ip), vehicle: acetone 100 % of control | dose: 400.0 mg/kg/injection, schedule: Q04DX003 (ip), vehicle: acetone 90 % of control

C=CCc1c(O)c(OC)cc2c1C(=O)CCCC2
inactive: [12] 93 % of control | [13] 93 % of control | [6] 93 % of control

S=P(Nc1ccc(Cl)cc1Cl)(Nc1ccc(Cl)cc1Cl)c1ccccc1
inactive: [14] 102 % of control | [15] 100 % of control | [16] 110 % of control

O=C(NNCCO)C(O)C(O)C(O)C(O)CO (stereo not drawn)
inactive: [3] 97 % of control | dose: 200.0 mg/kg/injection, schedule: Q04DX003 (ip), vehicle: saline 97 % of control | dose: 400.0 mg/kg/injection, schedule: Q04DX003 (ip), vehicle: saline 97 % of control
